Legend:
Nluc-FZD7 = target: T1, Nluc-FZD7 (Homo sapiens, UniProt O75084); assay: BRET-based BODIPY-cyclopamine competition binding at Nluc-FZD7; details: BODIPY-cyclopamine 200 nM; ΔFZD1-10 HEK293T cells; read-out: pIC50 (11) mean ± SEM, Nluc-FZD7 (converted)
T1 construct: expressed in transfected cells; host or cells: ΔFZD1–10 HEK293T cells
Method: (§1) After 24 h, cells were washed once with Hanks' balanced salt solution (HBSS), followed by the addition of 80 μl of HBSS. Next, 10 μl of the competitive ligand, that is, the tested SAG1.3 derivative (either in different concentrations for the concentration–response curves or at a final concentration of 10 μM for the first screens) and 10 μl of the fluorescent tracer BODIPY–cyclopamine (final concentration: 300 nM for the first screens, 200 nM for the concentration–response experiments) were added. All serial dilutions were prepared in HBSS. The cells were incubated for 90 min at 37 °C without additional CO2, after which 10 μl of luciferase substrate diluted in HBSS (furimazine; Promega, N1572, final dilution: 1:1000 for first screening) and coelenterazine h (Biosynth; final concentration: 5 μM for concentration–response experiments) were added to the cells. Following a 10 min incubation period in the dark, the measurement was started on a BMG Labtech ClarioStar or TECAN Spark multimode microplate reader, prewarmed to 37 °C. Nluc bioluminescence was detected between 460 and 490 nm (ClarioStar) or 460 and 500 nm (TECAN Spark). The emission of the fluorescent tracer was detected between 520 and 550 nm (ClarioStar) or between 520 and 560 nm (TECAN Spark). […]

Nluc-FZD6 = target: T2, Nluc-FZD6 (Homo sapiens, UniProt O60353); assay: BRET-based BODIPY-cyclopamine competition binding at Nluc-FZD6 in live HEK293 cells
T2 construct: expressed in transfected cells; host or cells: ΔSMO HEK293A or ΔFZD1–10 HEK293T cells (screen); ΔFZD1–10 HEK293T cells (concentration–response curves)
T2 sequence (O60353 19-706): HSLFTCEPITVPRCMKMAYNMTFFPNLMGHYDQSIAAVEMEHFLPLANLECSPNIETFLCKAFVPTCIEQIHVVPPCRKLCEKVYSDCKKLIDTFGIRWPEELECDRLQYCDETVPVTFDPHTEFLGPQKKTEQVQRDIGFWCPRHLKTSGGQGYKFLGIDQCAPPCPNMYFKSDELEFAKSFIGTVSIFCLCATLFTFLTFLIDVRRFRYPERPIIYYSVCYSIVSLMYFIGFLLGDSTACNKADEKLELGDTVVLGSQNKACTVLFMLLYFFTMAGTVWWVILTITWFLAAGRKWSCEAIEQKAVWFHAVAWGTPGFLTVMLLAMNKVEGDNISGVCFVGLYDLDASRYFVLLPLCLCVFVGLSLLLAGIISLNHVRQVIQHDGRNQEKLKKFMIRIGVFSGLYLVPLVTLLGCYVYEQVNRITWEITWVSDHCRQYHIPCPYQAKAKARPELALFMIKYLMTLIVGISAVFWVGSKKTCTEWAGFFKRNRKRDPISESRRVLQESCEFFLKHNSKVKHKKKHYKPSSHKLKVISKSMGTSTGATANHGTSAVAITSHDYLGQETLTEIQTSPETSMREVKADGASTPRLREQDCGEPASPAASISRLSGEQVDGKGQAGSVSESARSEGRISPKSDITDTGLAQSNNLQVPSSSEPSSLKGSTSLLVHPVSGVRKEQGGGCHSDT
Method: After 24 h, cells were washed once with Hanks' balanced salt solution (HBSS), followed by the addition of 80 μl of HBSS. Next, 10 μl of the competitive ligand, that is, the tested SAG1.3 derivative (either in different concentrations for the concentration–response curves or at a final concentration of 10 μM for the first screens) and 10 μl of the fluorescent tracer BODIPY–cyclopamine (final concentration: 300 nM for the first screens, 200 nM for the concentration–response experiments) were added. All serial dilutions were prepared in HBSS. The cells were incubated for 90 min at 37 °C without additional CO2, after which 10 μl of luciferase substrate diluted in HBSS (furimazine; Promega, N1572, final dilution: 1:1000 for first screening) and coelenterazine h (Biosynth; final concentration: 5 μM for concentration–response experiments) were added to the cells. Following a 10 min incubation period in the dark, the measurement was started on a BMG Labtech ClarioStar or TECAN Spark multimode microplate reader, prewarmed to 37 °C. Nluc bioluminescence was detected between 460 and 490 nm (ClarioStar) or 460 and 500 nm (TECAN Spark). The emission of the fluorescent tracer was detected between 520 and 550 nm (ClarioStar) or between 520 and 560 nm (TECAN Spark).
For each binding experiment, the measurement was repeated five times and averaged for the analysis. ΔBRET values were obtained by subtracting the BRET ratio obtained in wells containing BODIPY–cyclopamine but no competitive ligand (100% value). The BRET values for full displacement were defined using “donor-only” control wells, which contained Nluc-FZDx-transfected cells but no BODIPY–cyclopamine.
For the full concentration–response BRET binding curves in Figure 2, BRET values were normalized (separately for each experiment) to control wells containing BODIPY–cyclopamine but no competitive ligand (100% value) and “donor-only” wells (0% value, described previously). […] Obtained IC50 values were transformed to pIC50 values, which were subsequently averaged between experiments. Displacement curves showing the non-normalized data (ΔBRET values generated as described previously) can be found in Fig. S2.
Shown are mean values and SDs from N independent experiments (N = 2-8) performed in duplicate.
Shown are mean values ± SEM from N independent experiments performed in triplicate.

Nluc-FZD4 = target: T3, Nluc-FZD4 (Homo sapiens, UniProt Q9ULV1); assay: BRET-based BODIPY-cyclopamine competition binding at Nluc-FZD4; details: BODIPY-cyclopamine 200 nM; ΔFZD1-10 HEK293T cells; read-out: pIC50 (11) mean ± SEM, Nluc-FZD4 (converted)
T3 construct: expressed in transfected cells; host or cells: ΔFZD1–10 HEK293T cells
T3 sequence (Q9ULV1 37-537): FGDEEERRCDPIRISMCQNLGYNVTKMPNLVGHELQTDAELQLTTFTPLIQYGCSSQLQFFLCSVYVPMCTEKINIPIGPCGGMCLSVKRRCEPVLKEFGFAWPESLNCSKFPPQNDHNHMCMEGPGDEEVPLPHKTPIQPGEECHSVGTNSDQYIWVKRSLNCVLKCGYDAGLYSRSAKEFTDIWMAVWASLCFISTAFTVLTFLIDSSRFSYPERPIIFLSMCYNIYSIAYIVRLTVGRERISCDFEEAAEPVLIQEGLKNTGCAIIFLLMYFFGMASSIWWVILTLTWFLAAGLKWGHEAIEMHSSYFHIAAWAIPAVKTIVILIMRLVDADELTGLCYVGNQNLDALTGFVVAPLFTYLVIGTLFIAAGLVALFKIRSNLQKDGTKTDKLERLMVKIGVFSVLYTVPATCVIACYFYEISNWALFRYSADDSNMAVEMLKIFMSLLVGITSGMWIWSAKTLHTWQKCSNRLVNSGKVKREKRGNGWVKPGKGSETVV
Method: as §1

CC(=O)Nc1cccc(C(=O)NC2CCC(N(Cc3cccc(-c4ccncc4)c3)C(=O)c3sc4ccccc4c3Cl)CC2)c1 (stereo not drawn) [compound 11, N-((1r,4r)-4-(3-Acetamidobenzamido)cyclohexyl)-3-chloro-N-(3-(pyridin-4-yl)benzyl)benzo[b]thiophene-2-carboxamide]
IC50 (Nluc-FZD7): 891 nM
Displacement @ 10 µM compound (Nluc-FZD6) ΔBRET (Nluc-FZD6; 10 µM compound, BODIPY-cyclopamine 300 nM, BMG Labtech ClarioStar reader (complete tracer displacement: net BRET = -0.02736)): -0.0228
Displacement % (Nluc-FZD6; 10 µM compound, BODIPY-cyclopamine 300 nM, ClarioStar reader): 83.2%
IC50 (Nluc-FZD6; BODIPY-cyclopamine 200 nM, ΔFZD1-10 HEK293T cells, read-out: pIC50 (Nluc-FZD6) mean ± SEM (converted)): 1020 nM
IC50 values of competition binding within the FZD family (in words) (Nluc-FZD6; Nluc-FZD6 and other FZD paralogs): three-digit nanomolar to single-digit micromolar range
IC50 (Nluc-FZD4): 955 nM
